This passage reports viscosity and mass density results from the NIST ThermoML archive (doi:10.1021/acs.jced.7b00761).

± gives the expanded uncertainty stated by the source.

A short description of this data set: wn = mass fraction of the nth substance listed. The note with it: 313 K, 101.3 kPa, Liquid, w1 = 0.3.

The term viscosity denotes the resistance of a fluid to flow. For orientation: mass density means the mass of a sample divided by its volume. As to `CCNCCO` [2-(ethylamino)ethanol] + CCN(CC)CCO, for the setting “Vibrating wire viscometry”, the viscosity is given as 3.83 ± 0.21 mPa·s. Moreover, where the note is “petroleum hydrometers”, the mass density was 879 ± 3 kg/m3.
